# Patent US20240350430A1, “GROWTH INHIBITOR OF METASTATIC HUMAN PROSTATE CANCER CELLS” (Watanabe Oyster Laboratory Co., Ltd., priority 2021, published 2024)
# Tests used:
# DU-145 cells = assay: Colony formation of DU-145 cells; type: cell-based, human; details: DHMBA 1 or 10 μM, nine days
# Experimental: The PC-3 and DU-145 cells (1×10^3/in 2 ml of a culture fluid per hole using a six-hole plate) were cultured in a DMEM culture fluid (containing 10% of FBS, 1% of P/S, and 1% of fungizone) containing the DHMBA (1 and 10 μM) under 5% of CO2, at 37° C., for nine days. After the culture, the culture fluid was removed, the cells were washed twice with PBS, 95% of methanol (0.5 ml) was added, and the cells were fixed for 20 minutes. After the fixation, each well of a culture dish was washed four times with PBS (1 ml), and after that 0.5% of crystal violet (0.5 ml) was added, and the product was left for two hours at room temperature for staining. After the stain solution was washed to be removed, drying was performed, and after that colonies containing 50 or more cells were counted by a microscope (Olympus MTV-3, Olympus Corporation, Tokyo, Japan).
# FIG. 2(A) is a drawing in which the DU-145 cells (1×10^3 cells/per well of a six-well plate) were cultured under 5% of CO2, at 37° C., for nine days in a DMEM culture fluid (containing 10% of FBS, 1% of P/S, and 1% of fungizone) containing the DHMBA (1 or 10 μM).
# FIG. 2(B) is a diagram of counting the number of colonies.
# PC-3 cells = assay: Cell death of sub-confluent PC-3 cells (adherent cell counting); type: cell-based, human
# Experimental: The PC-3 and DU-145 cells (1×10^5/in 1 ml of a culture fluid per hole using a 24-hole plate) were cultured in a DMEM culture fluid (containing 10% of FBS, 1% of P/S, and 1% of fungizone) under 5% of CO2, at 37° C., for three days, and when the cells reached sub-confluence, the culture fluid was exchanged for the one containing the DHMBA (0.01, 0.1, 1, 10, 100, or 1000 μM), and the cells were cultured for 24 and 48 hours. After the culture, the cells adhering to the bottom surface of the dish were removed and counted. In another experiment, after the culture for three days, when the cells reached sub-confluence, the culture fluid was exchanged for a culture fluid containing the DHMBA (1 or 10 μM) and a caspase-3 inhibitor (10 μM), and the cells were counted after the culture for 48 hours. Further, after the culture for three days, when the cells reached sub-confluence, the culture fluid was exchanged for a culture fluid obtained by adding gemcitabine (0.1, 1, 10, 50 or 100 nM) or CH223191 (1, 10, and 25 μM) to a DMEM culture fluid containing the DHMBA (1 or 10 μM) or not containing the DHMBA, and the cells were counted after the culture for 48 hours.
# After the culture of the cells, 0.1 ml of 0.05% trypsin-EDTA solution obtained by dissolving the cells adhering to the bottom surface of the culture dish in PBS (Thermo Fisher Scientific, Waltham, MA, USA) not containing Ca^2+/Mg^2+ was added, incubation was performed at 37° C. for two minutes to release the adhering cells, and 0.9 ml of the DMEM culture fluid containing 10% of FBS and 1% of P/S was added to stop the reaction. The visible cells were counted by the Olympus MTV-3 microscope using a hemocytometer (Sigma-Aldrich).
# (§1) In the drawing, the PC-3 (FIGS. 5(A) and 5(B)) and DU-145 (FIGS. 5(D) and 5(E)) cells (1×10^5/in 1 ml of a culture fluid per hole using a 24-hole plate) were cultured under 5% of CO2, at 37° C., for three days in a DMEM culture fluid (containing 10% of FBS, 1% of P/S, and 1% of fungizone), and when the cells reached sub-confluence, the culture fluid was exchanged for the one containing the DHMBA (0.01, 0.1, 1, 10, 100, or 1000 μM), and the cells were cultured for 24 and 48 hours. In the drawing, after the culture, the cells adhering to the dish were counted.
# In another experiment, after the culture for three days, when the cells reached sub-confluence, for the PC-3 (FIG. 5(C)) or DU-145 (FIG. 5(F)) cells, the culture fluid was exchanged for a culture fluid containing the DHMBA (1 or 10 μM) and a caspase-3 inhibitor (10 μM), and the cells were counted after the culture for 48 hours. Further, after the culture for three days, when the cells reached sub-confluence, the culture fluid was exchanged for a culture fluid obtained by adding gemcitabine (0.1, 1, 10, 50 or 100 nM) or CH223191 (1, 10, and 25 μM) to a DMEM culture fluid containing the DHMBA (1 or 10 μM) or not containing the DHMBA, and the cells were counted after the culture for 48 hours. After the culture, the cells adhered to the dish were removed and counted. Each piece of data is shown with a mean value and a standard deviation of values obtained from eight wells of the different cultured cells. *p<0.001, comparison with the control (gray bar). 1-way ANOVA, Tukey-Kramer post-test.
# as §1, with “The” for “In the drawing, the”, “PC-3” for “PC-3 (FIGS. 5(A) and 5(B)) and DU-145 (FIGS. 5(D) and 5(E))”, “gemcitabine (1,” for “DHMBA (0.01, 0.1, 1,”, “10, 50,” for “10,”, “250 nM),” for “1000 μM),”, “for” for “for 24 and”
# After the culture for three days, when the cells reached sub-confluence, the culture fluid was exchanged for a culture fluid containing the DHMBA (1 or 10 μM) and gemcitabine (1, 10, or 100 nM), and the cells were counted after the culture for 48 hours. […]
smiles,measurement,setting,value
"COc1c(O)cc(CO)cc1O [DHMBA, 3,5-dihydroxy-4-methoxybenzyl alcohol]",colony formation,DU-145 cells,significantly inhibited
same,cell death inducing effect of DHMBA in the presence of CH223191,"PC-3 cells; DHMBA 10 μM with CH223191 1, 10, or 25 μM, 48 hours",found not to be expressed
same,cell death,"PC-3 cells; DHMBA 1, 10, 100, or 1000 μM, 24 and 48 hours",significantly increased
same,cell death inducing action of DHMBA in the presence of gemcitabine 1 or 10 nM,"PC-3 cells; DHMBA 1 and 10 μM, 48 hours",did not occur
same,cell death inducing effect of DHMBA in the coexistence of gemcitabine 100 nM,"PC-3 cells; DHMBA 1 and 10 μM, 48 hours",significantly enhanced
same,increase of cell death in the presence of caspase-3 inhibitor,"PC-3 cells; DHMBA 1 or 10 μM with caspase-3 inhibitor 10 μM, 48 hours",not caused
